Measured values from the supplement of paper PMC10307832.

Each cell line was assayed with CN(C)C(=N)NC(=N)N [Metformin] (assay: relative viability (nuclei count vs DMSO), 5 days (fraction); higher = more cells survive). Settings: 1000 µM.
Procedure, shortened: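 Lung cancer cell lines received five library-drug doses (not always all listed) spaced by √10, pinned on vehicle-anchored 1536-well plates after an overnight stay at 37 °C. Five days later, with no medium change, nuclei were Hoechst-stained, imaged at 4× and counted with MetaXpress. Viability is treated-well nuclei relative to vehicle-well nuclei, as a median across plates. Passing plates had control CV below 25% and at least one doubling.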
Cell Line UMC-11 has a relative viability of 0.992.

What follows are cell lines tested with CN(C)C(=N)NC(=N)N [Metformin] + CS(=O)(=O)N1CCN(Cc2cc3nc(-c4cccc5[nH]ncc45)nc(N4CCOCC4)c3s2)CC1 [Pictilisib] (partner 1 µM) (assay: relative viability (nuclei count vs DMSO), 5 days (fraction); higher = more cells survive). Settings: first compound 10 µM.
Procedure, shortened: (§1)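 Values are medians from duplicate plates. Each reflects relative viability, defined as the nuclei count of treated wells over that of vehicle wells. Lung cancer cell lines in 1536-well plates were pin-tool dosed one day after seeding with one drug alone or with a fixed anchor-drug dose plus five library-drug doses (not always all listed) in √10 steps, then fixed, stained and imaged at 4× after 5 days.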
NCI-H2170 gave a relative viability of 0.3. Work on NCI-H2228 yielded a relative viability of 0.306. With NCI-H2347 the relative viability was 0.665. With NCI-H2405 the relative viability was 0.469. NCI-H3122 gave a relative viability of 0.488. PC-3 [JPC-3] gave a relative viability of 0.773. Cell Line PC-14 has a relative viability of 0.577. For RERF-LC-KJ, the relative viability was 0.57. For SK-LU-1, the relative viability was 0.543. SK-MES-1 was tested, and the relative viability was 0.424. SW 1573 showed a relative viability of 0.534. Work on UMC-11 yielded a relative viability of 0.864.

Same assay, conditions: first compound 31.62 µM
For NCI-H2170, the relative viability was 0.283. NCI-H2228 gave a relative viability of 0.294. In the case of NCI-H2347, the relative viability is reported as 0.834. For NCI-H2405, the relative viability was 0.518. Cell Line NCI-H3122 has a relative viability of 0.588. In the case of PC-3 [JPC-3], the relative viability is reported as 0.728. For PC-14, the relative viability was 0.811. RERF-LC-KJ gave a relative viability of 0.55. Cell Line SK-LU-1 has a relative viability of 0.554. In the case of SK-MES-1, the relative viability is reported as 0.34. SW 1573 gave a relative viability of 0.42. UMC-11 showed a relative viability of 0.972.

Same assay, conditions: first compound 100 µM
Work on NCI-H2170 yielded a relative viability of 0.301. NCI-H2347 showed a relative viability of 1.02. NCI-H2405 showed a relative viability of 0.322. Cell Line NCI-H3122 has a relative viability of 0.459. With PC-3 [JPC-3] the relative viability was 0.771. Cell Line PC-14 has a relative viability of 0.654. RERF-LC-KJ was tested, and the relative viability was 0.53. For SK-LU-1, the relative viability was 0.674. With SK-MES-1 the relative viability was 0.362. Work on SW 1573 yielded a relative viability of 0.521. In the case of UMC-11, the relative viability is reported as 0.806.

Same assay, conditions: first compound 316.23 µM
With NCI-H2170 the relative viability was 0.31. With NCI-H2228 the relative viability was 0.227. For NCI-H2347, the relative viability was 0.492. For NCI-H2405, the relative viability was 0.373. NCI-H3122 was tested, and the relative viability was 0.437. For PC-3 [JPC-3], the relative viability was 0.751. PC-14 showed a relative viability of 0.734. Cell Line RERF-LC-KJ has a relative viability of 0.402. SK-LU-1 gave a relative viability of 0.685. Cell Line SK-MES-1 has a relative viability of 0.378. SW 1573 was tested, and the relative viability was 0.498. UMC-11 gave a relative viability of 0.716.

Same assay, conditions: first compound 1000 µM
In the case of NCI-H2170, the relative viability is reported as 0.264. NCI-H2228 gave a relative viability of 0.448. Cell Line NCI-H2347 has a relative viability of 0.659. NCI-H2405 showed a relative viability of 0.389. In the case of NCI-H3122, the relative viability is reported as 0.5. PC-3 [JPC-3] was tested, and the relative viability was 0.709. Work on PC-14 yielded a relative viability of 0.776. With RERF-LC-KJ the relative viability was 0.614. For SK-LU-1, the relative viability was 0.719. Work on SK-MES-1 yielded a relative viability of 0.414. Work on SW 1573 yielded a relative viability of 0.497. Cell Line UMC-11 has a relative viability of 0.902.

What follows are cell lines tested with N#CC1(c2ccc(NC(=O)c3cccnc3NCc3ccncc3)cc2)CCCC1 [Apatinib] + CS(=O)(=O)CCNCc1ccc(-c2ccc3ncnc(Nc4ccc(OCc5cccc(F)c5)c(Cl)c4)c3c2)o1 [Lapatinib] (partner 2 µM) in the same assay as above. Settings: first compound 0.08 µM.
Procedure, shortened: as §1
NCI-H2170 showed a relative viability of 0.307. NCI-H2228 showed a relative viability of 1.01. Cell Line NCI-H2347 has a relative viability of 0.926. With NCI-H2405 the relative viability was 0.959. NCI-H3122 showed a relative viability of 1.03. PC-3 [JPC-3] gave a relative viability of 0.472. Work on PC-14 yielded a relative viability of 0.384. RERF-LC-KJ was tested, and the relative viability was 0.787. SK-LU-1 gave a relative viability of 0.939. For SK-MES-1, the relative viability was 0.473. With SW 1573 the relative viability was 0.958. For UMC-11, the relative viability was 1.15.

Same assay, conditions: first compound 0.253 µM
NCI-H2170 showed a relative viability of 0.241. Cell Line NCI-H2228 has a relative viability of 1.05. In the case of NCI-H2347, the relative viability is reported as 0.992. Cell Line NCI-H2405 has a relative viability of 1.3. NCI-H3122 gave a relative viability of 1.02. PC-3 [JPC-3] showed a relative viability of 0.441. PC-14 showed a relative viability of 0.29. For RERF-LC-KJ, the relative viability was 0.851. SK-LU-1 gave a relative viability of 1.16. SK-MES-1 gave a relative viability of 0.473. For SW 1573, the relative viability was 1.09. With UMC-11 the relative viability was 0.917.

Same assay, conditions: first compound 0.8 µM
In the case of NCI-H2170, the relative viability is reported as 0.466. NCI-H2228 showed a relative viability of 0.986. For NCI-H2347, the relative viability was 1.02. With NCI-H2405 the relative viability was 1.1. NCI-H3122 gave a relative viability of 1.01. In the case of PC-3 [JPC-3], the relative viability is reported as 0.444. PC-14 gave a relative viability of 0.283. Work on RERF-LC-KJ yielded a relative viability of 0.817. With SK-LU-1 the relative viability was 1.03. Cell Line SK-MES-1 has a relative viability of 0.512. SW 1573 showed a relative viability of 1.15. In the case of UMC-11, the relative viability is reported as 0.83.

Same assay, conditions: first compound 2.53 µM
Cell Line NCI-H2170 has a relative viability of 0.271. Cell Line NCI-H2228 has a relative viability of 0.835. Work on NCI-H2347 yielded a relative viability of 0.964. Cell Line NCI-H2405 has a relative viability of 0.975. NCI-H3122 was tested, and the relative viability was 0.989. PC-3 [JPC-3] showed a relative viability of 0.394. Work on PC-14 yielded a relative viability of 0.277. For RERF-LC-KJ, the relative viability was 0.693. For SK-LU-1, the relative viability was 0.715. Cell Line SK-MES-1 has a relative viability of 0.414. Cell Line SW 1573 has a relative viability of 1.09. For UMC-11, the relative viability was 0.972.

Same assay, conditions: first compound 8 µM
Cell Line NCI-H2170 has a relative viability of 0.281. In the case of NCI-H2228, the relative viability is reported as 0.644. NCI-H2347 gave a relative viability of 0.957. NCI-H2405 showed a relative viability of 0.992. NCI-H3122 showed a relative viability of 1.01. With PC-3 [JPC-3] the relative viability was 0.43. For PC-14, the relative viability was 0.23. RERF-LC-KJ showed a relative viability of 0.698. With SK-LU-1 the relative viability was 0.709. In the case of SK-MES-1, the relative viability is reported as 0.502. For SW 1573, the relative viability was 1.02. With UMC-11 the relative viability was 0.901.
